Measurements reported in patent publication US20260076973A1 (priority 2023, published 2026).
Counter-ions that a name gives are not always drawn.

These compounds were tested on SARS-CoV-2 (WA1) (assay: microbe, parasite or virus in culture). Conditions: Severe acute respiratory syndrome coronavirus 2, Vero C1008.
Type: cell-based

| SMILES | IC50 [nM] |
| --- | --- |
| Cc1ccc(Nc2nc(Nc3cccc(C(F)(F)F)c3)nc(N3CCOCC3)n2)cc1C [VIRADEM-11914, N-(3,4-Dimethylphenyl)-6-morpholin-4-yl-N^1-(3-trifluoromethylphenyl)-[1,3,5]triazine-2,4-diamine] | 130 |
| Cc1ccc(Nc2nc(Nc3cccc(F)c3)nc(N3CCOCC3)n2)cc1Cl [VIRADEM-12292, N-(3-Chloro-4-methylphenyl)-N^1-(3-fluorophenyl)-6-morpholin-4-yl-[1,3,5]triazine-2,4-diamine] | 150 |
| Clc1ccccc1Nc1nc(Nc2ccccc2Cl)nc(N2CCOCC2)n1 [VIRADEM-14303, N,N^1-bis-(2-chlorophenyl)-6-morpholin-4-yl-[1,3,5]triazine-2,4-diamine] | > 1000 |

Same assay, conditions: Severe acute respiratory syndrome coronavirus 2, Vero C1008, VIRADEM compounds, SARS-CoV-2(WA1) CPE assay, Round 2, concentration range 1000-0.05 nM, Vero E6; read-out: IC50

| SMILES | IC50 [nM] |
| --- | --- |
| Cc1ccc(N2C(N3CCOCC3)=NC(N)=NC2Nc2cccc(F)c2)cc1 (centres unmarked) [VIRADEM-11785, N-(3-Fluorophenyl)-6-morpholin-4-yl-N^1-p-tolyl-[1,3,5]triazine-2,4-diamine hydrochloride] | 170 |
| Cc1cccc(N2C(N3CCOCC3)=NC(N)=NC2Nc2cccc(F)c2)c1 (centres unmarked) [VIRADEM-11786, N-(3-Fluorophenyl)-6-morpholin-4-yl-N^1-m-tolyl-[1,3,5]triazine-2,4-diamine hydrochloride] | 380 |
| Cc1cccc(N2C(N3CCOCC3)=NC(N)=NC2Nc2ccc(F)cc2)c1 (centres unmarked) [VIRADEM-11787, N-(4-Fluorophenyl)-6-morpholin-4-yl-N^1-m-tolyl-[1,3,5]triazine-2,4-diamine hydrochloride] | 360 |
| CCOc1ccc(NC2N=C(N)N=C(N3CCOCC3)N2c2cccc(C)c2)cc1 (centres unmarked) [VIRADEM-11794, N-(4-Ethoxyphenyl)-6-morpholin-4-yl-N^1-m-tolyl-[1,3,5]triazine-2,4-diamine hydrochloride] | 270 |
| Cc1ccc(NC2N=C(N)N=C(N3CCCC3)N2c2ccc(F)cc2)cc1C (centres unmarked) [VIRADEM-11809, N-(3,4-Dimethylphenyl)-N^1-(4-fluorophenyl)-6-pyrrolidin-1-yl-[1,3,5]triazine-2,4-diamine hydrochloride] | > 1000 |
| CC(=O)c1cccc(Nc2nc(Nc3ccc(Cl)cc3)nc(N3CCOCC3)n2)c1 [VIRADEM-11882, 1-{3-[4-(4-chlorophenylamino)-6-morpholin-4-yl-[1,3,5]triazin-2-ylamino]-phenyl}-ethanone] | 120 |
| CC(=O)c1cccc(Nc2nc(Nc3ccc(F)cc3)nc(N3CCOCC3)n2)c1 [VIRADEM-11883, 1-{3-[4-(4-Fluorophenylamino)-6-morpholin-4-yl-[1,3,5]triazin-2-ylamino]-phenyl}-ethanone hydrochloride] | > 1000 |
| CCCCc1ccc(Nc2nc(Nc3cccc(C(C)=O)c3)nc(N3CCOCC3)n2)cc1 [VIRADEM-12037, 1-{3-[4-(4-Butylphenylamino)-6-morpholin-4-yl-[1,3,5]triazin-2-ylamino]-phenyl}-ethanone] | > 1000 |
| CCOc1cccc(N2C(N3CCCC3)=NC(N)=NC2Nc2ccc(C)c(C)c2)c1 (centres unmarked) [VIRADEM-12185, N-(3,4-Dimethylphenyl)-N^1-(3-ethoxyphenyl)-6-pyrrolidin-1-yl-[1,3,5]triazine-2,4-diamine hydrochloride] | > 1000 |
| CC(=O)c1cccc(Nc2nc(Nc3cccc(Cl)c3)nc(N3CCOCC3)n2)c1 [VIRADEM-12188, 1-{3-[4-(3-Chlorophenylamino)-6-morpholin-4-yl-[1,3,5]triazin-2-ylamino]-phenyl}-ethanone] | 320 |
| COc1cccc(NC2N=C(N)N=C(N3CCOCC3)N2c2ccccc2)c1 (centres unmarked) [VIRADEM-12252, N-(3-Methoxyphenyl)-6-morpholin-4-yl-N^1-phenyl-[1,3,5]triazine-2,4-diamine hydrochloride] | 110 |
| COc1ccccc1N1C(N2CCOCC2)=NC(N)=NC1Nc1cc(C)cc(C)c1 (centres unmarked) [VIRADEM-12270, N-(3,5-Dimethylphenyl)-N^1-(2-methoxyphenyl)-6-morpholin-4-yl-[1,3,5]triazine-2,4-diamine hydrochloride] | 380 |
| Cc1cc(C)cc(N2C(N3CCCC3)=NC(N)=NC2Nc2cccc(Cl)c2)c1 (centres unmarked) [VIRADEM-12278, N-(3-Chlorophenyl)-N^1-(3,5-dimethylphenyl)-6-pyrrolidin-1-yl-[1,3,5]triazine-2,4-diamine hydrochloride] | > 1000 |
| CC(=O)c1cccc(Nc2nc(Nc3ccc(C(C)C)cc3)nc(N3CCOCC3)n2)c1 [VIRADEM-12305, 1-{3-[4-(4-Isopropylphenylamino)-6-morpholin-4-yl-[1,3,5]triazin-2-ylamino]-phenyl}-ethanone] | 450 |
| CC(C)c1ccc(Nc2nc(N3CCCC3)nc(N3CCCC3)n2)cc1 [VIRADEM-12307, (4,6-Dipyrrolidin-1-yl-[1,3,5]triazin-2-yl)-(4-isopropylphenyl)-amine hydrochloride] | > 1000 |
| CCc1ccc(Nc2nc(Nc3cc(Cl)cc(Cl)c3)nc(N3CCOCC3)n2)cc1 [VIRADEM-12327, N-(3,5-Dichlorophenyl)-N^1-(4-ethylphenyl)-6-morpholin-4-yl-[1,3,5]triazine-2,4-diamine] | 730 |

| SMILES | IC50 [nM] |
| --- | --- |
| COC(=O)c1ccc(Nc2nc(Nc3cccc(OC)c3)nc(N3CCOCC3)n2)cc1 [VIRADEM-12329, 4-[4-(3-Methoxyphenylamino)-6-morpholin-4-yl-[1,3,5]triazin-2-ylamino]-benzoic acid methyl ester] | 20 |
| Cc1ccccc1Nc1nc(N2CCOCC2)nc(N2CCOCC2)n1 [VIRADEM-12434, (4,6-Dimorpholin-4-yl-[1,3,5]triazin-2-yl)-o-tolyl-amine] | > 1000 |
| CC(C)c1ccc(Nc2nc(N3CCOCC3)nc(N3CCOCC3)n2)cc1 [VIRADEM-12435, (4,6-Dimorpholin-4-yl-[1,3,5]triazin-2-yl)-(4-isopropylphenyl)-amine] | > 1000 |
| CC(C)(C)c1nnc(N2CCOCC2)nc1Nc1ccccc1 [VIRADEM-13044, (6-tert-Butyl-3-morpholin-4-yl-[1,2,4]triazin-5-yl)-phenyl-amine] | > 1000 |
| COc1ccc(CC(=O)N(N)c2nc(N3CCOCC3)nc(N3CCOCC3)n2)cc1 [VIRADEM-14302, (4-Methoxyphenyl)-acetic acid N1-(4,6-dimorpholin-4-yl-[1,3,5]triazin-2-yl)-hydrazide] | > 1000 |
| C1CCC(Nc2nc(N3CCOCC3)nc(N3CCOCC3)n2)C1 [VIRADEM-14309, Cyclopentyl-(4,6-dimorpholin-4-yl-[1,3,5]triazin-2-yl)-amine] | > 1000 |
| Clc1ccc(Oc2nc(N3CCOCC3)nc(N3CCOCC3)n2)cc1 [VIRADEM-15106, 2-(4-Chlorophenoxy)-4,6-dimorpholin-4-yl-[1,3,5]triazine] | > 1000 |
| c1ccc(CN2CCN(c3nc(N4CCOCC4)nc(N4CCOCC4)n3)CC2)cc1 [VIRADEM-15199, 2-(4-Benzylpiperazin-1-yl)-4,6-dimorpholin-4-yl-[1,3,5]triazine] | > 1000 |
| c1cc2c(cc1CNc1nc(N3CCOCC3)nc(N3CCOCC3)n1)OCO2 [VIRADEM-15201, Benzo[1,3]dioxol-5-ylmethyl-(4,6-dimorpholin-4-yl-[1,3,5]triazin-2-yl)-amine] | > 1000 |
| c1ccc(CNc2nc(N3CCOCC3)nc(N3CCOCC3)n2)cc1 [VIRADEM-15209, Benzyl-(4,6-dimorpholin-4-yl-[1,3,5]triazin-2-yl)-amine] | > 1000 |
| COc1ccc(Nc2nc(N3CCOCC3)nc(N3CCC(C)CC3)n2)cc1 [VIRADEM-15220, (4-Methoxyphenyl)-[4-(4-methylpiperidin-1-yl)-6-morpholin-4-yl-[1,3,5]triazin-2-yl]amine] | > 1000 |
| Cc1ccc(Nc2nc(N3CCCCCC3)nc(N3CCOCC3)n2)cc1 [VIRADEM-15229, (4-Azepan-1-yl-6-morpholin-4-yl-[1,3,5]triazin-2-yl)-p-tolyl-amine] | 850 |
| Cc1ccc(Nc2nc(N3CCOCC3)nc(N3CCC(C)CC3)n2)cc1C [VIRADEM-15231, (3,4-Dimethylphenyl)-[4-(4-methylpiperidin-1-yl)-6-morpholin-4-yl-[1,3,5]triazin-2-yl]-amine] | 350 |
| c1coc(CNc2nc(N3CCOCC3)nc(N3CCOCC3)n2)c1 [VIRADEM-15234, (4,6-Dimorpholin-4-yl-[1,3,5]triazin-2-yl)-furan-2-ylmethylamine] | > 1000 |
| COc1ccc(CCNc2nc(N3CCOCC3)nc(N3CCOCC3)n2)cc1OC [VIRADEM-15243, [2-(3,4-Dimethoxyphenyl)-ethyl]-(4,6-dimorpholin-4-yl-[1,3,5]triazin-2-yl)-amine] | > 1000 |
| CCc1cccc(Nc2nc(N3CCOCC3)nc(N3CCOCC3)n2)c1 [VIRADEM-15248, (4,6-Dimorpholin-4-yl-[1,3,5]triazin-2-yl)-(3-ethylphenyl)-amine] | > 1000 |

Same assay, conditions: VIRADEM compounds, SARS-CoV-2(WA1) CPE assay, Round 2, concentration range 1000-0.05 nM, Vero E6; read-out: IC50

| SMILES | IC50 [nM] |
| --- | --- |
| CCOC(=O)c1ccc(Nc2nc(Nc3ccc(C)c(C)c3)nc(N3CCOCC3)n2)cc1 [VIRADEM-11913, 4-[4-(3,4-Dimethylphenylamino)-6-morpholin-4-yl-[1,3,5]-2-ylamino]-benzoic acid ethyl ester] | 40 |
| Cc1cccc(Nc2nc(Nc3ccc(C(C)C)cc3)nc(N3CCOCC3)n2)c1 [VIRADEM-12251, N-(4-Isoproylphenyl)-6-morpholin-4-yl-N^1-m-tolyl-[1,3,5]triazine-2,4-diamine hydrochloride] | 560 |
| Cc1ccc(Nc2nc(Nc3ccc(C(C)C)cc3)nc(N3CCOCC3)n2)cc1 [VIRADEM-12253, N-(4-Isoproylphenyl)-6-morpholin-4-yl-N^1-p-tolyl-[1,3,5]triazine-2,4-diamine hydrochloride] | 510 |
| Cc1ccc(Nc2nc(N3CCOCC3)nc(N(C)c3ccccc3)n2)cc1C [VIRADEM-15168, N-(3,4-Dimethylphenyl)-N^1-methyl-6-morpholin-4-yl-N^1-phenyl-[1,3,5]triazine-2,4-diamine] | 180 |
| c1ccc(CCNc2nc(N3CCOCC3)nc(N3CCOCC3)n2)cc1 [VIRADEM-15230, (4,6-Dimorpholin-4-yl-[1,3,5]triazin-2-yl)-phenetylamine] | 460 |
| COc1ccc(Nc2nc(Nc3cccc4ccccc34)nc(N3CCOCC3)n2)cc1 [VIRADEM-15262, N-(4-Methoxyphenyl)-6-morpholin-4-yl-N^1-naphthalen-[1,3,5]triazine-2,4-diamine] | 440 |
